Assay results as given in US7737125B2, “LNA antagonists targeting the androgen receptor” (Enzon Pharamaceuticals, Inc., priority 2007, dated 2010).
Strand notation (5' to 3'): a small letter for the sugar, then the base; units joined by * are phosphorothioate-linked, units joined directly phosphodiester-linked; [ ] holds rarer units or linkages, { } end groups; capitals alone tell only the bases. l = locked nucleic acid (LNA); [5mC] = 5-methylcytosine; d = 2'-deoxy (DNA)

How the values were obtained:
[1] = test system: mouse androgen receptor mRNA; assay: In vivo knock-down of AR mRNA expression in mouse liver (QPCR); conditions: nude mice, 100 mg/kg i.v. q3dx4, liver 24 h after last dosing, normalised to mouse GAPDH, relative to saline treated animals
Method: Nude mice were dosed i.v. q3dx4 with 100 mg/kg oligonucleotide (group size of 5 mice). The antisense oligonucleotides (SEQ ID:48, SEQ ID:51, SEQ ID:58, SEQ ID:63, SEQ ID:77) were dissolved in phosphate buffered saline. Animals were sacrificed 24 h after last dosing and liver tissue was sampled and stored in RNA later until RNA extraction and QPCR analysis. Total RNA was extracted and AR mRNA expression in liver samples was measured by QPCR as described in Example 7 using a mouse AR QPCR assay (cat. Mm01238475_m1, Applied Biosystems). Results were normalised to mouse GAPDH (cat. no. 4352339E, Applied Biosystems) and knock-own was quantitated relative to saline treated controls. The data in Table 4 are presented as percentage down-regulation relative to saline treated animals.

[2] = test system: LNCaP prostate cancer cells; assay: Measurement of proliferating viable cells (MTS assay), LNCaP; type: cell-based, human; conditions: 4 nM and 16 nM, time course post-transfection (FIG. 14)
Method: (§1) LNCaP prostate cancer and A549 lung cancer cells were seeded to a density of 150,000 cells per well in a 6-well plate the day prior to transfection. A549 cells were cultured in DMEM (Sigma)+10% fetal bovine serum (FBS)+2 mM Glutamax I+gentamicin (25 μg/ml) whereas LNCaP cells were cultured in RPMI 1640 Medium (Sigma)+10% fetal bovine serum (FBS)+2 mM Glutamax I+gentamicin (25 μg/ml). On the following day, medium was removed followed by addition of 1.2 ml OptiMEM containing 5 μg/ml Lipofectamine2000 (Invitrogen). Cells were incubated for 7 min before adding 0.3 ml oligonucleotides diluted in OptiMEM. The final oligonucleotide concentrations were 4 nM and 16 nM. After 4 hours of treatment, media was removed and cells were trypsinized and seeded to a density of 5000 cells per well in a clear 96 well plate (Scientific Orange no. 1472030100) in 100 μl media. Viable cells were measured at the times indicated by adding 10 μl the tetrazolium compound [3-(4,5-[…])-5-(3-carboxymethoxyphenyl)-2-(4-sulfophenyl)-2H-tetrazolium, inner salt; MTS] and an electron coupling reagent (phenazine ethosulfate; PES) (CellTiter 96® AQueous One Solution Cell Proliferation Assay, Promega). Viable cells were measured at 490 nm in a Powerwave (Biotek Instruments). The OD490 nm measurements were plotted against time/h. (See FIG. 13 and FIG. 14).

A549 lung cancer cells = assay: Measurement of proliferating viable cells (MTS assay), A549; type: cell-based, human; conditions: 4 nM and 16 nM, time course post-transfection (FIG. 13)
Method: as §1

[3] = test system: Caspase 3/7 activity in LNCaP cells; assay: Caspase 3/7 activity (Caspase-Glo 3/7) in LNCaP cells; type: cell-based, human; conditions: 4 nM and 16 nM; 14 h, 48 h and 72 h (FIG. 15)
Method: (§2) LNCaP prostate cancer cells and A549 lung cancer cells were seeded to a density of 150,000 cells per well in a 6-well plate the day prior to transfection. A549 cells were cultured in DMEM (Sigma)+10% fetal bovine serum (FBS)+2 mM Glutamax I+gentamicin (25 μg/ml) whereas LNCaP cells were cultured in RPMI 1640 Medium (Sigma)+10% fetal bovine serum CUBS)+2 mM Glutamax I+gentamicin (25 μg/ml). The next day medium was removed followed by addition of 1.2 ml OptiMEM containing 5 μg/ml Lipofectamine2000 (Invitrogen). Cells were incubated for 7 min before adding 0.3 ml oligonucleotides diluted in OptiMEM. The final oligonucleotide concentrations were 4 nM and 16 nM. After 4 hours of treatment, media was removed and cells were trypsinized and seeded to a density of 5000 cells per well in a white 96 well plate (Nunc) in 100 μl media. Caspase 3/7 activity was measured at the times indicated by adding 100 μl Caspase-Glo 3/7 assay (Promega). Caspase 3/7 activity was measured using a luminometer. The caspase 3/7 activities were measured at three different time points 14 h, 48 h and 72 h (See FIG. 15 and FIG. 16).

[4] = test system: Caspase 3/7 activity in A549 cells; assay: Caspase 3/7 activity (Caspase-Glo 3/7) in A549 cells; type: cell-based, human; conditions: 4 nM and 16 nM; 14 h, 48 h and 72 h (FIG. 16)
Method: as §2

[5] = test system: human androgen receptor mRNA; assay: AR mRNA knock-down in LNCaP, 24 h post-transfection, 0.5-16 nM (qPCR); type: cell-based; conditions: 0.5, 1, 2, 4, 8 and 16 nM, 24 h post-transfection (FIG. 11)
Method: FIG. 11: AR mRNA in LNCaP, 24 h post-transfection
(§3) Oligonucleotides were evaluated for their potential to knock down androgen receptor mRNA expression at concentrations of 0.5, 1, 2, 4, 8 and 16 nM (see FIG. 11). LNCaP prostate cancer cells and A549 lung cancer cells were seeded to a density of 150,000 cells per well in a 6-well plate the day prior to transfection. A549 cells were cultured in DMEM (Sigma)+10% fetal bovine serum (FBS)+2 mM Glutamax I+gentamicin (25 μg/ml). LNCaP cells were cultured in RPMI 1640 Medium (Sigma)+10% fetal bovine serum (FBS)+2 mM Glutamax I+gentamicin ([…]). On the following day, medium was removed followed by addition of 1.2 ml OptiMEM containing 5 μg/ml Lipofectamine2000 (Invitrogen). Cells were incubated for 7 min before adding 0.3 ml oligonucleotides diluted in OptiMEM. The final oligonucleotide concentrations were 0.5, 1, 2, 4, 8 and 16 nM. Cells were washed and serum-containing media was added. After oligomer treatment cells were allowed to recover for 20 hours before they were harvested for RNA analysis. The procedure for RNA isolation, cDNA synthesis and qPCR were as described in Examples 5, 6 and 7.

[6] = test system: human androgen receptor mRNA; assay: AR mRNA knock-down in A549, 24 h post-transfection, 0.5-16 nM (qPCR); type: cell-based; conditions: 0.5, 1, 2, 4, 8 and 16 nM, 24 h post-transfection (FIG. 12)
Method: FIG. 12: AR mRNA in A549, 24 h post-transfection
as §3

Substance	Liver (% KD) of AR mRNA expression ([1]; listed as SEQ ID: 77, 100 mg/kg)	Growth of LNCaP prostate cancer cells (viable cells, OD490 nm vs time) [2]	Growth of A549 lung cancer cells (viable cells, OD490 nm vs time) (A549 lung cancer cells)	Caspase 3/7 activity in LNCaP cells [3]	Caspase 3/7 activity in A549 cells [4]	Knock down of AR mRNA expression in LNCaP prostate cancer cell line [5]	Knock down of AR mRNA expression in lung cancer cell line A549 [6]	Liver (% KD) of AR mRNA expression ([1]; listed as SEQ ID: 58, 100 mg/kg)
5′-CsCsCsasasgsgscsascstsgscsAsGsA-3′ (antisense l[5mC]*l[5mC]*l[5mC]*dA*dA*dG*dG*dC*dA*dC*dT*dG*dC*lA*lG*lA) [SEQ ID NO: 77, LNA gapmer antisense oligonucleotide]	91.9 +/− 3.9%	inhibit growth	inhibit growth	induce caspase 3/7 activity	induce caspase 3/7 activity	potent in knocking down AR mRNA expression	potent in knocking down AR mRNA expression	
5′-AsCsCsasasgstststscststscsAsGsC-3′ (antisense lA*l[5mC]*l[5mC]*dA*dA*dG*dT*dT*dT*dC*dT*dT*dC*lA*lG*l[5mC]) [SEQ ID NO: 58, LNA gapmer antisense oligonucleotide]		inhibit growth	inhibit growth	induce caspase 3/7 activity	induce caspase 3/7 activity	potent in knocking down AR mRNA expression	potent in knocking down AR mRNA expression	95.2 +/− 1.0%
